According to patent publication US12544395B2, “Combination compositions comprising a beta-lactamase inhibitor and uses thereof” (priority 2018, dated 2026):
pIC50: −log10 of the molar value. Converted amounts (≈) assume the structure as drawn. “And” between values parts separate entries of the source, which are not always exact repeats. Equal entries are not always repeated.

Columns and labels:
[1] = test system: K. pneumoniae UNT-023 (KPC-2); assay: MIC vs. septicemia model strain; type: cell-based; conditions: Klebsiella pneumoniae, read-out: MIC vs. K. pneumoniae UNT-023 (KPC-2)
[2] = test system: ESBL-expressing Enterobacteriaceae (n = 33); assay: Broth microdilution MIC, ceftibuten/Compound 2 vs IV comparators; type: cell-based
[3] = biological target: T1, CMY-2 (Klebsiella pneumoniae, UniProt Q48434); assay: Beta-lactamase enzyme inhibition (IC50); type: biochemical
T1 construct: expressed as native untagged proteins; made in house; host or cells: E. coli BL21(DE3)
Method: E. coli BL21(DE3) bacterial cells carrying expression plasmids for the individual beta-lactamases (SHV-5, KPC-2, p99AmpC, CTX-M-15, CMY-2, IMP-1, NDM-1, VIM-2, OXA-1, and OXA 48; expressed as native untagged proteins), were grown in 1 L of Superbroth (Teknova Inc. Hollister, CA) supplemented with 100 μg/mL kanamycin selection and 1×5052 (0.5% glycerol, 0.05% glucose and 0.2% α-lactose) at 35° C. for 18-20 hours. Cells were harvested by centrifugation (4,000×g, 4° C., 20 min) and resuspended in 50 mL of 10 mM HEPES pH 7.5 ( 1/20 of the initial volume). The cells were lysed by sonication (5 pulses of 45 seconds) at 45 W on ice. The lysates were clarified by centrifugation at 10,000×g for 40 minutes at 4° C. […] Active fractions were pooled, concentrated, quantitated by BCA protein determination (Thermo Scientific, Rockford, IL), dialyzed into PBS and frozen at −80° C. in 20% glycerol until use.
An equal volume of diluted enzyme stock was added, and the plates were incubated at 37° C. for 15 min. […] Absorbance at 486 nm was immediately monitored for 10 min using a Biotek Powerwave XS2 microplate spectrophotometer using the GEN5 software package (Biotek Instruments, Winooski VT). […] Maximum rates of hydrolysis were compared to those in control wells (without inhibitors), and percentages of enzyme inhibition were calculated for each concentration of inhibitor. […]

[4] = Single dose plasma pharmacokinetics (fasted and non-fasted); type: in vivo, Sprague-Dawley rats; conditions: Sprague-Dawley, rat, iv, 5 mg/kg
[5] = Metabolic stability in liver S9; type: in vitro ADME; conditions: liver S9; Human; test conc. 3 μM
[6] = Metabolic stability in liver S9; type: in vitro ADME, beagle dog; conditions: beagle, liver S9; Dog; test conc. 3 μM
[7] = Metabolic stability in intestinal S9; type: in vitro ADME, cynomolgus monkey; conditions: cynomolgus, intestinal S9; Monkey; test conc. 3 μM
[8] = Metabolic stability in intestinal S9; type: in vitro ADME, Sprague-Dawley rat; conditions: Sprague-Dawley, intestinal S9; Rat; test conc. 3 μM
[9] = Metabolic stability in plasma; type: in vitro ADME; conditions: Sprague-Dawley, Rat, test conc. 3 μM

T1 sequence (Q48434 21-381): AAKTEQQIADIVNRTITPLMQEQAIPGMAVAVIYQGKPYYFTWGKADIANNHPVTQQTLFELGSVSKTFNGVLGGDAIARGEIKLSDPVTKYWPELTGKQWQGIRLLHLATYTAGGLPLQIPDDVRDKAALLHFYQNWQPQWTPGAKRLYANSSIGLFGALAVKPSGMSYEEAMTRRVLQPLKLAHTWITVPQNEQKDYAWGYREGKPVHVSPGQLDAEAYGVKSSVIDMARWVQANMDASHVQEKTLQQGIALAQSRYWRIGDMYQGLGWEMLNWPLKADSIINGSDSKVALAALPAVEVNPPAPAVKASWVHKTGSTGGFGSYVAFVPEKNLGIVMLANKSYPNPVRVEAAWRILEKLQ

| SMILES | MIC [1] [µg/mL] | Number of strains at MIC value 0.5 mg/L ([2]; ESBL-expressing (n = 33)) | Number of strains at MIC value 1 mg/L ([2]; ESBL-expressing (n = 33)) | Number of strains at MIC value 2 mg/L ([2]; ESBL-expressing (n = 33)) | Number of strains at MIC value 4 mg/L ([2]; ESBL-expressing (n = 33)) | Number of strains at MIC value 8 mg/L ([2]; ESBL-expressing (n = 33)) | Number of strains at MIC value 16 mg/L ([2]; ESBL-expressing (n = 33)) | Number of strains at MIC value […] ([2]; ESBL-expressing (n = 33)) | Number of strains at MIC value ≤0.06 mg/L ([2]; ESBL-expressing (n = 33)) | Number of strains at MIC value ≥32 mg/L ([2]; ESBL-expressing (n = 33)) | MIC50 ([2]; iv) [µg/mL] | MIC90 ([2]; iv) [µg/mL] | pIC50 [3] | AUC(0-inf) [4] [ng·h/mL] | Cmax [4] [ng/mL] | half-life at 3 μM [5] [h] | half-life at 3 μM [6] [h] | half-life at 3 μM [7] [h] | half-life at 3 μM [8] [h] | half-life at 3 μM [9] [h] |
| --- | --- | --- | --- | --- | --- | --- | --- | --- | --- | --- | --- | --- | --- | --- | --- | --- | --- | --- | --- | --- |
| Nc1nc(/C(=C/CC(=O)O)C(=O)N[C@@H]2C(=O)N3C(C(=O)O)=CCS[C@H]23)cs1 [Ceftibuten, ceftibuten, reference compound] | > 128 | 2 | 4 | 2 | 8 | 5 | 1 | 2 and 3 | 0 | 6 | 4 (≈ 9.75 µM) | ≥ 32 | – | – | – | – | – | – | – | – |
| CCC(=O)N[C@H]1Cc2cccc(C(=O)O)c2OB1O [Compound 2, (R)-2-hydroxy-3-propionamido-3,4-dihydro-2H-benzo[e][1,2]oxaborinine-8-carboxylic acid] | – | – | – | – | – | – | – | – | – | – | – | – | 7.85 | 3710 | 7100 | > 2 | > 2 | > 2 | > 2 | > 2 |
